Experimental data as given in article PMC6747225 (International Journal of Environmental Research and Public …, 2019).

Tests used:
[1] = tested on: superoxide dismutase (SOD); experiment: Superoxide dismutase (SOD) activity in fish liver; type: in vivo, Carassius auratus; details: SER alone 5 μg·L^−1 compared to control, seven days
Procedure: A dechlorinated water control treatment and solvent control treatment (0.1% methanol) were also set in the exposure treatments. Each treatment was prepared in six replicate tanks (30 L) with four fish per tank. Fish were not fed during the exposure period. The exposure solutions were refreshed every 24 h. After the exposure experiment, six fish were sampled in each treatment for biochemical assay and chemical analysis. The liver, brain, gills, and muscle were dissected, immediately frozen in liquid nitrogen, and stored at −80 °C until the assays. The remaining 18 fish in each treatment were used for behavioral trials at the end of exposure.
The tissue sample was homogenized in chilled physiological saline solution (1:10, w/v). The homogenates were then centrifuged for 10 min (10,000 g) at 4 °C. The obtained supernatant was used to determine enzyme activity, MDA content, and protein concentration using bioassay kits according to the manufacturer’s protocol. Enzyme activity is reported as unit (U) mg^−1 protein, and MDA content is expressed in nmol mg^−1 protein.

[2] = tested on: CY2D6 enzyme; details: humans and mammals; cited from earlier work

SMILES | SOD activity [1] | Inhibition of the CY2D6 enzyme [2]
CN[C@H]1CC[C@@H](c2ccc(Cl)c(Cl)c2)c2ccccc21 [SER, sertraline] | not significantly changed | 
CN(C)CCOC(c1ccccc1)c1ccccc1 [DPH, diphenhydramine] |  | strong inhibitor
